According to patent publication US9440982B2 (Eolas Therapeutics, Inc., priority 2012, dated 2016):
Like-named read-outs stand apart in the source and are kept apart here.

How the values were obtained:
CYP3A4 = biological target: T1, CYP3A4 (Homo sapiens, UniProt P08684); test: Cytochrome P450 inhibition assay (midazolam hydroxylation); assay type: in vitro ADME; settings: human, human liver microsomes, probe midazolam (hydroxylation to 1′-hydroxymidazolam), 10 μM test compound, midazolam at approximately its Km
T1 construct: pre-incubated with human liver microsomes and NADPH; from tissue; host or cells: human liver microsomes
Method in brief: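 Percent inhibition of midazolam 1′-hydroxylation by 10 μM compound was measured, midazolam dosed at about Km. Time-dependent inhibition was probed by a 30 min preincubation of compound with human liver microsomes and NADPH ahead of substrate, compared against samples without preincubation.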

OX1 = biological target: T2, OX1 (Homo sapiens, UniProt O43613); test: Orexin receptor cell-based functional assay, [Ca2+]i by FLIPR, CHO-OX1 cells
T2 construct: expressed in transfected cells; host or cells: CHO (CHO-OX1, kept under selection antibiotic)
T2 sequence (O43613 1-425): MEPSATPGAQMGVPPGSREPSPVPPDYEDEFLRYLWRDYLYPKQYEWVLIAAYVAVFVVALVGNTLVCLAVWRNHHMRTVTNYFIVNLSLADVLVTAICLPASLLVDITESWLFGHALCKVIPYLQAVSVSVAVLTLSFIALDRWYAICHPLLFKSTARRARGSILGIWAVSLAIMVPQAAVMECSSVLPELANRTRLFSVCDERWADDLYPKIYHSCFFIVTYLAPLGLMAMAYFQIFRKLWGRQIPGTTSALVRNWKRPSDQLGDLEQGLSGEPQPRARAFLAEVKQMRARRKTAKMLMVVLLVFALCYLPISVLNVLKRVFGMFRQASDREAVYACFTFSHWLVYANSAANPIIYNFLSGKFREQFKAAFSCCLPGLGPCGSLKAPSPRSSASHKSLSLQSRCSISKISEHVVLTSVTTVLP
Method in brief: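 Antagonist mode FLIPR calcium read in CHO-OX1 and CHO-OX2 lines. Test compounds, dosed 0.1 nM-10 μM, preincubated 30 min after 37° C dye loading with 2.5 mM probenecid (calcium4 for 30 min or calcium6 for 2 h).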

[1] = CHO-OX1 cells, [Ca2+]i by FLIPR, antagonist dose-range 0.1 nM-10 μM, EC90 of OXA, read-out: OX1

T1 sequence (P08684 whole entry): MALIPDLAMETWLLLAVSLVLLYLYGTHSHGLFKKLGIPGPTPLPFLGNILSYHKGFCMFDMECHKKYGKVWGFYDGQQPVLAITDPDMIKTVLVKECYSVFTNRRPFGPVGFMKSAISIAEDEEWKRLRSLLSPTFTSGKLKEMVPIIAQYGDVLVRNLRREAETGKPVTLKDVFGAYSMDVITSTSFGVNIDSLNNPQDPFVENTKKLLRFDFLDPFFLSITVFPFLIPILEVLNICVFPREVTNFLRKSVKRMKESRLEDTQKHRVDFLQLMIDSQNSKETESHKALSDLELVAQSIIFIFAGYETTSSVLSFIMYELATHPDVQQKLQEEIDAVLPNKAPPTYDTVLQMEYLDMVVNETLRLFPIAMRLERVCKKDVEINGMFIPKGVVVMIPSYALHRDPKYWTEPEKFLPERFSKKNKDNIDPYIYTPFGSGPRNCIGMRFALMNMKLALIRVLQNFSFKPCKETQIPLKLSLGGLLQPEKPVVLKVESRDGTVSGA

Row | inhibition at 10 µM (CYP3A4) | IC50 (OX1; [1]) | SMILES | IC50 (OX1; OX1 (μM))
1 | 75% | 0.005 µM | Cc1cccc(C(=O)N2CCC[C@@H](C)[C@H]2CNc2ccc(C(F)(F)F)cn2)c1-c1ncccn1 [Example A298, ((2S,3R)-3-Methyl-2-(((5-(trifluoromethyl)pyridin-2-yl)amino)methyl)piperidin-1-yl)(3-methyl-2-(pyrimidin-2-yl)phenyl)methanone] | –
2 | 46% | 0.25 µM | Cc1cccc(-c2ncccn2)c1C(=O)N1CCC[C@@H](C)[C@H]1CNc1ncc(C(F)(F)F)cn1 [Example A307, ((2S,3R)-3-Methyl-2-(((5-(trifluoromethyl)pyrimidin-2-yl)amino)methyl)piperidin-1-yl)(2-methyl-6-(pyrimidin-2-yl)phenyl)methanone] | –
3 | 60% | 0.005 µM | C[C@@H]1CCCN(C(=O)c2ccccc2-n2nccn2)[C@@H]1CNc1ncc(C(F)(F)F)cn1 [Example A313, (2-(2H-1,2,3-Triazol-2-yl)phenyl)((2S,3R)-3-methyl-2-(((5-(trifluoromethyl)pyrimidin-2-yl)amino)methyl)piperidin-1-yl)methanone] | –
4 | 76% | 0.002 µM | C[C@@H]1CCCN(C(=O)c2ccccc2-n2nccn2)[C@@H]1CNc1ccc(C(F)(F)F)cn1 [Example A314, (2-(2H-1,2,3-Triazol-2-yl)phenyl)((2S,3R)-3-methyl-2-(((5-(trifluoromethyl)pyridin-2-yl)amino)methyl)piperidin-1-yl)methanone] | –
5 | 63% | 0.004 µM | C[C@@H]1CCCN(C(=O)c2ccccc2-c2ncccn2)[C@@H]1CNc1ccc(C(F)(F)F)cn1 [Example A316, ((2S,3R)-3-Methyl-2-(((5-(trifluoromethyl)pyridin-2-yl)amino)methyl)piperidin-1-yl)(2-(pyrimidin-2-yl)phenyl)methanone] | –
6 | 46% | 0.001 µM | C[C@@H]1CCCN(C(=O)c2ccccc2-c2ncccn2)[C@@H]1CNc1ncc(C(F)(F)F)cn1 [Example A317, ((2S,3R)-3-Methyl-2-(((5-(trifluoromethyl)pyrimidin-2-yl)amino)methyl)piperidin-1-yl)(2-(pyrimidin-2-yl)phenyl)methanone] | –
7 | 79% | 0.007 µM | Cc1ccc(-n2nccn2)c(C(=O)N2CCC[C@@H](C)[C@H]2CNc2ccc(C(F)(F)F)cn2)c1F [Example A318, (2-Fluoro-3-methyl-6-(2H-1,2,3-triazol-2-yl)phenyl)((2S,3R)-3-methyl-2-(((5-(trifluoromethyl)pyridin-2-yl)amino)methyl)piperidin-1-yl)methanone] | –
8 | 53% | 0.006 µM | Cc1ccc(-n2nccn2)c(C(=O)N2CCC[C@@H](C)[C@H]2CNc2ncc(C(F)(F)F)cn2)c1F [Example A319, (2-Fluoro-3-methyl-6-(2H-1,2,3-triazol-2-yl)phenyl)((2S,3R)-3-methyl-2-(((5-(trifluoromethyl)pyrimidin-2-yl)amino)methyl)piperidin-1-yl)methanone] | –
9 | 40% | 0.011 µM | C[C@@H]1CCCN(C(=O)c2cc(C#N)ccc2-n2nccn2)[C@@H]1CNc1ncc(C(F)(F)F)cn1 [Example A322, 3-((2S,3R)-3-Methyl-2-(((5-(trifluoromethyl)pyrimidin-2-yl)amino)methyl)piperidine-1-carbonyl)-4-(2H-1,2,3-triazol-2-yl)benzonitrile] | –
10 | 39% | 0.01 µM | C[C@@H]1CCCN(C(=O)c2cc(C#N)ccc2-c2ncccn2)[C@@H]1CNc1ncc(C(F)(F)F)cn1 [Example A323, 3-((2S,3R)-3-Methyl-2-(((5-(trifluoromethyl)pyrimidin-2-yl)amino)methyl)piperidine-1-carbonyl)-4-(pyrimidin-2-yl)benzonitrile] | –
11 | 83% | 0.005 µM | Cc1ccc(C(=O)N2CCC[C@@H](C)[C@H]2CNc2ccc(C(F)(F)F)cn2)c(-c2ncccn2)c1F [Example A358, (3-fluoro-4-methyl-2-(pyrimidin-2-yl)phenyl)((2S,3R)-3-methyl-2-(((5-(trifluoromethyl)pyridin-2-yl)amino)methyl)piperidin-1-yl)methanone] | –

The remaining lines, values behind:

Row | SMILES | inhibition at 10 µM (CYP3A4) | IC50 (OX1; [1]) | IC50 (OX1; OX1 (μM))
12 | C[C@@H]1CCCN(C(=O)c2cc(F)c(F)cc2-c2ncccn2)[C@@H]1CNc1ncc(C(F)(F)F)cn1 [Example A243, (4,5-Difluoro-2-(pyrimidin-2-yl)phenyl)((2S,3R)-3-methyl-2-(((5-(trifluoromethyl)pyrimidin-2-yl)amino)methyl)piperidin-1-yl)methanone] | 68% | 0.075 µM | –
13 | C[C@@H]1CCCN(C(=O)c2cc(F)c(F)cc2-c2ncccn2)[C@@H]1CNc1ncc(Cl)cn1 [Example A244, ((2S,3R)-2-(((5-Chloropyrimidin-2-yl)amino)methyl)-3-methylpiperidin-1-yl) (4,5-difluoro-2-(pyrimidin-2-yl)phenyl)methanone] | 70% | 1.3 µM | –
14 | C[C@@H]1CCCN(C(=O)c2cc(F)c(F)cc2-n2nccn2)[C@@H]1CNc1ncc(Cl)cn1 [Example A247, ((2S,3R)-2-(((5-Chloropyrimidin-2-yl)amino)methyl)-3-methylpiperidin-1-yl)(4,5-difluoro-2-(2H-1,2,3-triazol-2-yl)phenyl)methanone] | 65% | > 0.1 µM | –
15 | C[C@@H]1CCCN(C(=O)c2cc(F)c(F)cc2-n2nccn2)[C@@H]1CNc1ncc(C(F)(F)F)cn1 [Example A248, (4,5-Difluoro-2-(2H-1,2,3-triazol-2-yl)phenyl)((2S,3R)-3-methyl-2-(((5-(trifluoromethyl)pyrimidin-2-yl)amino)methyl)piperidin-1-yl)methanone] | 67% | 0.02 µM | –
16 | C[C@@H]1CCCN(C(=O)c2cc(F)c(F)cc2-n2nccn2)[C@@H]1CNc1ccc(C(F)(F)F)cn1 [Example A249, (4,5-Difluoro-2-(2H-1,2,3-triazol-2-yl)phenyl)((2S,3R)-3-methyl-2-(((5-(trifluoromethyl)pyridin-2-yl)amino)methyl)piperidin-1-yl)methanone] | 83% | 0.018 µM | –
17 | C[C@@H]1CCCN(C(=O)c2cccc(F)c2-n2nccn2)[C@@H]1CNc1ccc(Cl)cn1 [Example A254, ((2S,3R)-2-(((5-Chloropyridin-2-yl)amino)methyl)-3-methylpiperidin-1-yl)(3-fluoro-2-(2H-1,2,3-triazol-2-yl)phenyl)methanone] | 63% | 0.037 µM | –
18 | C[C@@H]1CCCN(C(=O)c2cccc(F)c2-n2nccn2)[C@@H]1CNc1ncc(Cl)cn1 [Example A255, ((2S,3R)-2-(((5-Chloropyrimidin-2-yl)amino)methyl)-3-methylpiperidin-1-yl)(3-fluoro-2-(2H-1,2,3-triazol-2-yl)phenyl)methanone] | 41% | 0.041 µM | –
19 | C[C@@H]1CCCN(C(=O)c2cccc(F)c2-n2nccn2)[C@@H]1CNc1ccc(C(F)(F)F)cn1 [Example A257, (3-Fluoro-2-(2H-1,2,3-triazol-2-yl)phenyl)((2S,3R)-3-methyl-2-(((5-(trifluoromethyl)pyridin-2-yl)amino)methyl)piperidin-1-yl)methanone] | 69% | 0.004 µM | –
20 | C[C@@H]1CCCN(C(=O)c2c(F)cccc2-n2nccn2)[C@@H]1CNc1ccc(C(F)(F)F)cn1 [Example A258, (2-Fluoro-6-(2H-1,2,3-triazol-2-yl)phenyl)((2S,3R)-3-methyl-2-(((5-(trifluoromethyl)pyridin-2-yl)amino)methyl)piperidin-1-yl)methanone] | 69% | 0.004 µM | –
21 | C[C@@H]1CCCN(C(=O)c2c(F)cccc2-n2nccn2)[C@@H]1CNc1ncc(C(F)(F)F)cn1 [Example A259, (2-Fluoro-6-(2H-1,2,3-triazol-2-yl)phenyl)((2S,3R)-3-methyl-2-(((5-(trifluoromethyl)pyrimidin-2-yl)amino)methyl)piperidin-1-yl)methanone] | 37% | 0.009 µM | –
22 | C[C@@H]1CCCN(C(=O)c2c(F)cccc2-n2nccn2)[C@@H]1CNc1ncc(Cl)cn1 [Example A260, ((2S,3R)-2-(((5-Chloropyrimidin-2-yl)amino)methyl)-3-methylpiperidin-1-yl)(2-fluoro-6-(2H-1,2,3-triazol-2-yl)phenyl)methanone] | 53% | 0.085 µM | –
23 | C[C@@H]1CCCN(C(=O)c2c(F)cccc2-n2nccn2)[C@@H]1CNc1ccc(Cl)cn1 [Example A261, ((2S,3R)-2-(((5-Chloropyridin-2-yl)amino)methyl)-3-methylpiperidin-1-yl)(2-fluoro-6-(2H-1,2,3-triazol-2-yl)phenyl)methanone] | 77% | 0.005 µM | –
24 | C[C@@H]1CCCN(C(=O)c2cc(F)ccc2-n2nccn2)[C@@H]1CNc1ccc(C(F)(F)F)cn1 [Example A310] | 75% | – | 0.003 µM
